# Where a SMILES comes first, the peptide text is derived from it. Bridges are numbered along the chain shown (N, C = ends). Roman numbers before positions name the chains, in order. [ ]: non-standard residue; d: D form. Tle = CC(C)(C)[C@H](N)C(=O)O; dDab = NCC[C@@H](N)C(=O)O; hSer = N[C@@H](CCO)C(=O)O; Nle = CCCC[C@H](N)C(=O)O; Orn = NCCC[C@H](N)C(=O)O; Dab = NCC[C@H](N)C(=O)O; Dap = NC[C@H](N)C(=O)O
# Tests used:
# Assay type in all cases: cell-based
# [1] = system: human red blood cells (hRBC); assay: Hemolysis; details: red cells of human, 1 h, 200
# Procedure, shortened: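 Read-out is supernatant absorbance at 540 nm, normalised to full lysis by 2% Triton X-100 and zero lysis by PBS with 10% water. Peptides (200 μg/mL) were exposed to 20% v/v washed human erythrocytes at 37° C for 1 h under shaking.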
# [2] = system: Klebsiella pneumoniae SSI #3010; details: SSI #3010
# Procedure, shortened: (§1)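 CLSI broth microdilution in cation-adjusted Mueller-Hinton II broth with 0.002% polysorbate 80 (final), inoculum appr. 10^6 CFU/mL, peptides in serial two-fold dilutions. MIC (μg/mL) is the lowest concentration without visible growth after 18-20 h at 35° C.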
# [3] = system: Escherichia coli 926415; details: 926415
# Procedure, shortened: as §1
# [4] = system: Enterobacter cloacae 848840; details: 848840
# Procedure, shortened: as §1
# [5] = system: Pseudomonas aeruginosa ATCC 27853; details: ATCC 27853
# Procedure, shortened: as §1
# [6] = system: Escherichia coli ATCC 25922; details: ATCC 25922
# Procedure, shortened: as §1
# [7] = system: Acinetobacter baumannii 872842; details: 872842
# Procedure, shortened: as §1
# [8] = system: Acinetobacter baumannii DSM 30008; details: DSM 30008
# Procedure, shortened: as §1
# [9] = system: Klebsiella pneumoniae 968733; details: 968733
# Procedure, shortened: as §1
SMILES,MIC [2] [µg/mL],MIC [3] [µg/mL],MIC [4] [µg/mL],MIC [5] [µg/mL],MIC [6] [µg/mL],MIC [7] [µg/mL],MIC [8] [µg/mL],MIC [9] [µg/mL],Klebsiella pneumoniae SSI #3010 MIC [2] [µg/mL],Pseudomonas aeruginosa ATCC 27853 MIC [5] [µg/mL],Escherichia coli ATCC 25922 MIC [6] [µg/mL],Acinetobacter baumannii DSM 30008 MIC [8] [µg/mL],Hemolysis at 200 μg/mL [1] [%]
CC(=O)N[C@H](C(=O)N[C@H]1CSSC[C@@H](C(=O)N[C@@H](CO)C(N)=O)NC(=O)[C@H](C(C)C)NC(=O)[C@H](CCC(=O)O)NC(=O)[C@H](Cc2c[nH]c3ccccc23)NC(=O)[C@H](CCN)NC(=O)[C@@H](CCN)NC(=O)[C@H](CCC(=O)N[C@@H](CCN)C(=O)N[C@H](C(=O)N[C@@H](CN)C(=O)N[C@H]2CCNC(=O)[C@H]([C@@H](C)O)NC(=O)[C@H](CCN)NC(=O)[C@H](CCN)NC(=O)[C@H](CC(C)C)NC(=O)[C@@H](CC(C)C)NC(=O)[C@H](CCN)NC2=O)[C@@H](C)O)NC(=O)[C@H](CCN)NC(=O)[C@H](Cc2ccc(O)cc2)NC1=O)C(C)C [Ex. 153] (I: Ac-VCY[Dab]E[dDab][Dab]WEVCS-NH2 / II: [Dab]T[Dap][Dab][Dab][dL]L[Dab][Dab]T; disulfide I:2-I:11; amide I:5-II:N; lactam II:4-II:C),0.0625,0.125,0.125,0.125,0.0625,0.0625,0.03125,0.25,–,–,–,–,<1
"CCCC[C@H](NC(C)=O)C(=O)N[C@H]1CCCNC(=O)[C@@H]([C@H](C)O)NC(=O)[C@H](C(C)(C)C)NC(=O)[C@H](CO)NC(=O)[C@H](Cc2c[nH]c3ccccc23)NC(=O)[C@H](CCO)NC(=O)[C@@H](CCN)NC(=O)[C@H](CCC(=O)N[C@@H](CCN)C(=O)N[C@H](C(=O)N[C@@H](CN)C(=O)N[C@H]2CCNC(=O)[C@H]([C@@H](C)O)NC(=O)[C@H](CCN)NC(=O)[C@H](CCN)NC(=O)[C@H](CC(C)C)NC(=O)[C@@H](CC(C)C)NC(=O)[C@H](CCN)NC2=O)[C@@H](C)O)NC(=O)[C@H](CN)NC(=O)[C@H](Cc2ccc(O)cc2)NC1=O [Ex. 34] (I: Ac-[Nle][Orn]Y[Dap]E[dDab][hSer]WS[Tle][dT] / II: [Dab]T[Dap][Dab][Dab][dL]L[Dab][Dab]T; lactam I:2-I:C, II:4-II:C; amide I:5-II:N)",0.125,0.0625,0.125,0.25,0.0625,0.0625,0.03125,0.125,–,–,–,–,<1
"CC(=O)N[C@H](C(=O)N[C@H]1CCNC(=O)C[C@@H](C(=O)N[C@@H](CO)C(N)=O)NC(=O)[C@H](C(C)C)NC(=O)[C@H](CO)NC(=O)[C@H](Cc2c[nH]c3ccccc23)NC(=O)CNC(=O)[C@@H](CCN)NC(=O)[C@H](CCC(=O)N[C@@H](CCN)C(=O)N[C@H](C(=O)N[C@@H](CN)C(=O)N[C@H]2CCNC(=O)[C@H]([C@@H](C)O)NC(=O)[C@H](CCN)NC(=O)[C@H](CCN)NC(=O)[C@H](CC(C)C)NC(=O)[C@@H](CC(C)C)NC(=O)[C@H](CCN)NC2=O)[C@@H](C)O)NC(=O)[C@H](CN)NC(=O)[C@H](Cc2ccc(O)cc2)NC1=O)C(C)C [Ex. 346] (I: Ac-V[Dab]Y[Dap]E[dDab]GWSVDS-NH2 / II: [Dab]T[Dap][Dab][Dab][dL]L[Dab][Dab]T; lactam I:2-I:11, II:4-II:C; amide I:5-II:N)",–,0.25,0.125,–,–,0.125,–,0.5,0.0625,0.125,0.0625,0.0625,<1

# Now from value to compound, other results behind:
MIC [2] [µg/mL],MIC [3] [µg/mL],MIC [4] [µg/mL],MIC [5] [µg/mL],MIC [6] [µg/mL],MIC [7] [µg/mL],MIC [8] [µg/mL],MIC [9] [µg/mL],Klebsiella pneumoniae SSI #3010 MIC [2] [µg/mL],Pseudomonas aeruginosa ATCC 27853 MIC [5] [µg/mL],Escherichia coli ATCC 25922 MIC [6] [µg/mL],Acinetobacter baumannii DSM 30008 MIC [8] [µg/mL],SMILES,Hemolysis at 200 μg/mL [1] [%]
–,0.25,0.25,–,–,0.125,–,0.25,0.0625,0.125,0.0625,0.0625,CC(=O)N[C@H](C(=O)N[C@H]1CSSC[C@@H](C(=O)N[C@@H](CO)C(N)=O)NC(=O)[C@H](C(C)C)NC(=O)[C@H](CO)NC(=O)[C@H](Cc2c[nH]c3ccccc23)NC(=O)[C@@H](CO)NC(=O)[C@@H](CCN)NC(=O)[C@H](CCC(=O)N[C@@H](CCN)C(=O)N[C@H](C(=O)N[C@@H](CN)C(=O)N[C@H]2CCNC(=O)[C@H]([C@@H](C)O)NC(=O)[C@H](CCN)NC(=O)[C@H](CCN)NC(=O)[C@H](CC(C)C)NC(=O)[C@@H](CC(C)C)NC(=O)[C@H](CCN)NC2=O)[C@@H](C)O)NC(=O)[C@H](CCN)NC(=O)[C@H](Cc2ccc(O)cc2)NC1=O)C(C)C [Ex. 305] (I: Ac-VCY[Dab]E[dDab][dS]WSVCS-NH2 / II: [Dab]T[Dap][Dab][Dab][dL]L[Dab][Dab]T; disulfide I:2-I:11; amide I:5-II:N; lactam II:4-II:C),3
0.125,0.25,4,0.125,0.0625,0.125,0.125,1,–,–,–,–,CC(C)C[C@@H]1NC(=O)[C@@H](CC(C)C)NC(=O)[C@H](CCN)NC(=O)[C@@H](NC(=O)[C@H](CCN)NC(=O)[C@@H](NC(=O)[C@H](CCN)NC(=O)CC[C@@H]2NC(=O)[C@H](CCN)NC(=O)[C@H](Cc3ccc(O)cc3)NC(=O)[C@@H](NC(=O)[C@@H](N)C(C)C)CSSC[C@@H](C(=O)N[C@@H](CO)C(N)=O)NC(=O)[C@H](C(C)(C)C)NC(=O)[C@H](CO)NC(=O)[C@H](Cc3c[nH]c4ccccc34)NC(=O)[C@H]([C@@H](C)O)NC(=O)[C@@H](CCN)NC2=O)[C@@H](C)O)CCNC(=O)[C@H]([C@@H](C)O)NC(=O)[C@H](CCN)NC(=O)[C@H](CCN)NC1=O [Ex. 47] (I: H-VCY[Dab]E[dDab]TWS[Tle]CS-NH2 / II: [Dab]T[Dab][Dab][Dab][dL]L[Dab][Dab]T; disulfide I:2-I:11; amide I:5-II:N; lactam II:4-II:C),<1
–,0.0625,0.0625,–,–,0.03125,–,0.0625,0.03125,0.0625,0.01562,0.007813,CC(=O)N[C@H](C(=O)N[C@H]1CSSC[C@@H](C(=O)N[C@@H](C)C(=O)N[C@@H](CO)C(N)=O)NC(=O)[C@H](C(C)C)NC(=O)[C@H](CO)NC(=O)[C@H](Cc2c[nH]c3ccccc23)NC(=O)[C@H](CO)NC(=O)[C@@H](CCN)NC(=O)[C@H](CCC(=O)N[C@@H](CCN)C(=O)N[C@H](C(=O)N[C@@H](CN)C(=O)N[C@H]2CCNC(=O)[C@H]([C@@H](C)O)NC(=O)[C@H](CCN)NC(=O)[C@H](CCN)NC(=O)[C@H](CC(C)C)NC(=O)[C@@H](CC(C)C)NC(=O)[C@H](CCN)NC2=O)[C@@H](C)O)NC(=O)[C@H](CCN)NC(=O)[C@H](Cc2ccc(O)cc2)NC1=O)C(C)C [Ex. 367] (I: Ac-VCY[Dab]E[dDab]SWSVCAS-NH2 / II: [Dab]T[Dap][Dab][Dab][dL]L[Dab][Dab]T; disulfide I:2-I:11; amide I:5-II:N; lactam II:4-II:C),<1
0.0625,0.125,0.125,0.25,0.0625,0.0625,0.0625,0.25,–,–,–,–,CC(=O)N[C@H](C(=O)N[C@H]1CSSC[C@@H](C(=O)N[C@H](C(N)=O)[C@@H](C)O)NC(=O)[C@H](C(C)(C)C)NC(=O)[C@H](CO)NC(=O)[C@H](Cc2c[nH]c3ccccc23)NC(=O)[C@H](CO)NC(=O)[C@@H](CCN)NC(=O)[C@H](CCC(=O)N[C@@H](CCN)C(=O)N[C@H](C(=O)N[C@@H](CN)C(=O)N[C@H]2CCNC(=O)[C@H]([C@@H](C)O)NC(=O)[C@H](CCN)NC(=O)[C@H](CCN)NC(=O)[C@H]([C@@H](C)O)NC(=O)[C@@H](CC(C)C)NC(=O)[C@H](CCN)NC2=O)[C@@H](C)O)NC(=O)[C@H](CCN)NC(=O)[C@H](Cc2ccc(O)cc2)NC1=O)C(C)C [Ex. 139] (I: Ac-VCY[Dab]E[dDab]SWS[Tle]CT-NH2 / II: [Dab]T[Dap][Dab][Dab][dL]T[Dab][Dab]T; disulfide I:2-I:11; amide I:5-II:N; lactam II:4-II:C),2
